The text below walks through data of patent US20080051457A1, “Optically Active Phthalamide Derivative, Agricultural or Horticultural Insecticide, and Method of Using the Same” (priority 2004, published 2008).

The structures appear in SMILES notation.

Common to all, as to format: in vivo
Experiment [1] relates to Common White (Pieris Rapae). Description: Comparative Test 2: control of common white on cabbage by prick-in-hole application at transplanting. To be noted: Dosage 10 mgAI/plant, 27 days after the transplanting. As to the method:
An agent containing, as an active ingredient (AI), each of the compounds shown in the table and a comparative compound 1 (the compound with Compound No. 216 described in JP-A-2001-131141), was put into a prick-in-hole on the ground, and then cabbage seedlings (Variety: YR Seitoku) transplanted onto the treated hole (at the end of April). 27 days after the transplanting, the number of larvae of common white was counted. The control value was calculated according to the expression indicated below, and it was then evaluated in accordance with the criterion noted in Comparative test 1 above. One test group consisted of 20 cabbage loaves. [formula]

In experiment [2] the test system is Diamond Back Moth (Plutella xylostella). The experiment in a line: Test Example 1: insecticidal activity on diamond back moth, cabbage leaf disc dip. The conditions noted are these: foliar, 192 h, third instar larvae, eight days after the inoculation, read-out: insecticidal activity judged from mortality. The source says: (§1) A cabbage leaf disc (variety: Shikidori) cut into 7 cm-diameter was dipped for about 30 seconds into a chemical solution prepared by diluting a preparation containing each compound listed in Tables 1 and 2 as an active ingredient to adjust the concentration to 50 ppm. After dried, it was put into a plastic Petri dish with a diameter of 9 cm and inoculated with ten of the third instar larvae of diamond back moths. Eight days after the inoculation, the dead and alive larvae were counted. The mortality was calculated according to the following equation and the insecticidal activity was judged according to the criterion shown below. The test was carried out with three replications under the condition of 25° C., 50-60% RH and 16L-8D photoperiod. [formula]

Experiment [3] has as its system Common Cutworm (Spodoptera litura). The experiment in a line: Test Example 2: insecticidal activity on common cutworm, cabbage leaf disc dip. The conditions noted are these: foliar, 192 h, second instar larvae, eight days after the inoculation, read-out: insecticidal activity judged from mortality.
Source text: as §1, with “second” for “third”, “common cutworm.” for “diamond back moths.”, “calculated” for “calculated according to the following equation”, “in” for “according to”, “same manner as in Test Example 1.” for “criterion shown below.”, “photoperiod.” for “photoperiod. [formula]”

As to `Cc1cc(C(F)(C(F)(F)F)C(F)(F)F)ccc1NC(=O)c1cccc(I)c1C(=O)N[C@@H](C)C[S+](C)[O-]` (some centres unmarked) [Compound 1-4], in experiment [1], the “Evaluation of control value (27 days later)” value (shortened to “Evaluation of control value”) was 10 (Mortality 91%-100%).
Consider `Cc1cc(C(F)(C(F)(F)F)C(F)(F)F)ccc1NC(=O)c1cccc(Cl)c1C(=O)N[C@@H](C)CS(C)(=O)=O` [Compound 1-77], for which the “Evaluation of control value” value in experiment [1] is given as 10 (Mortality 91%-100%).
Consider `Cc1cc(OC(F)(F)F)ccc1NC(=O)c1cccc(I)c1C(=O)N[C@@H](C)CS(C)(=O)=O` [Compound 1-44, (S)-3-iodo-N′-(2-methyl-4-trifluoromethoxyphenyl)-N^2— (1-methyl-2-methylsulfonylethyl)phthalamide], for which the mortality at 50 ppm in experiment [2] and in experiment [3] was 100% throughout.
As to `Cc1cc(C(F)(C(F)(F)F)C(F)(F)F)ccc1NC(=O)c1cccc(I)c1C(=O)N[C@@H](C)CS(C)(=O)=O` [Compound 1-5], the “Evaluation of control value” value in experiment [1] is on record as 10 (Mortality 91%-100%).
As to `CSC[C@H](C)NC(=O)c1c(I)cccc1C(=O)Nc1ccc(OC(F)(F)F)cc1C` [Compound 1-42, (S)-3-iodo-N^1-(2-methyl-4-trifluoromethoxyphenyl)-N^2-(1-methyl-2-methylthioethyl)phthalamide], the mortality at 50 ppm in experiment [2] and in experiment [3] was 100% in each case.
Take `Cc1cc(C(F)(C(F)(F)F)C(F)(F)F)ccc1NC(=O)c1cccc(Br)c1C(=O)N[C@@H](C)CS(C)(=O)=O` [Compound 1-74]: the “Evaluation of control value” value in experiment [1] is 10 (Mortality 91%-100%).

By mortality is commonly meant the share of the test organisms that died.
